Measurements: US12329739B2, “Isoflavonoid compounds and methods for the treatment of cancer” (Aardvark Therapeutics, Inc., priority 2010, dated 2025)
pIC50: −log10 of the molar value.

Assays:
PC3 = assay: MTT proliferation assay, PC3; type: cell-based; settings: Homo sapiens, PC-3, 120 h, Prostate, PC3, 120 h of exposure
Procedure: (§1) Proliferation Assays. IC50 values were determined for each cell line. Cells were seeded in 96-well plates at an appropriate cell density as determined from growth kinetics analysis and cultured for 5 days in the absence and presence of the test compounds. Cell proliferation was assessed after the addition of 20 μl of 3-4,5 dimethylthiazol-2,5-diphenyl tetrazolium bromide (MTT, 5 mg/ml in PBS, Sigma) for 5 hrs at 37° C. according to manufacturer's instructions. IC50 values were calculated from semi-log plots of % of control proliferation on the y-axis against log dose on the x-axis.
(§2) Anti-proliferative Activity of Isoflavonoid Derivatives. IC50 values were determined for each cell line after 120 h of exposure.

DU145 = assay: MTT proliferation assay, DU145; type: cell-based; settings: Homo sapiens, DU-145; Prostate, DU145, 120 h of exposure
Procedure: as §1, §2

LNCaP = assay: MTT proliferation assay, LNCaP; type: cell-based; settings: Homo sapiens, Prostate, 120 h of exposure
Procedure: as §1, §2

COLO205 = assay: MTT proliferation assay, COLO205; type: cell-based, human; settings: Homo sapiens, COLO 205; CRC, COLO205, 120 h of exposure
Procedure: (§3) The human non-small cell lung adenocarcinoma lines NCI-H1299 (CRL-5803), NCI-H460 (HTB-177), NCI-H358 (CRL-5807), NCI-H838 (CRL-5844), the human colorectal adenocarcinoma lines COLO 205 (CCL-222), HCT-15 (CCL-225) and the human gastric cancer cell line NCI-N87 (CRL-5822) were cultured in RPMI 1640 medium containing 2 g/L sodium bicarbonate (Hyclone/Invitrogen) supplemented with 2 mM L-glutamine (Gibco) 1 mM sodium pyruvate (Sigma), 10 mM HEPES (Sigma) and 4500 mg/L glucose (Sigma). The human non-small cell lung adenocarcinoma line NCI-H2126 (CCL-256) was cultured in DMEM:F12(1:1) (Hyclone/Invitrogen) containing 2.5 mM L-glutamine 2.4 g/L sodium bicarbonate supplemented with 5% fetal bovine serum (FBS), an additional 2 mM L-glutamine, 15 mM HEPES, 0.005 mg/ml insulin (Sigma), 0.01 mg/ml transferrin (Sigma), 30 nM sodium selenite (Sigma), 10 nM hydrocortisone (Sigma) and 10 nM beta-estradiol (Sigma). The human colorectal adenocarcinoma line HT-29 (HTB-38) and the human gastric cancer cell lines OE-19 (#96071721) and MKN1 (JCRB0252) were cultured in RPMI 1640 media supplemented with 2 mM L-glutamine.
as §1, §2

A2780 = assay: MTT proliferation assay, A2780; type: cell-based; settings: Homo sapiens, A2780, 120 h, Ovarian, A2780, 120 h of exposure
Procedure: as §1, §2

R-182 = assay: MTT proliferation assay, R-182; type: cell-based; settings: Ovarian, R-182, 120 h of exposure
From the text: Tissue culture. The multidrug resistant primary epithelial ovarian cancer cell line R-182 TARA was a gift from Dr. Gil Mor (Yale University, New Haven, CT, USA). This cell line was derived by explant from ovarian tumors and cultured as previously described. All other cell lines were purchased from American Type Culture Collection (ATCC, Manassas, VA, USA) with the exception of MKN1, HuH-7, JHH-1, which were purchased from the Japanese Collection of Research Bioresources (JCRB, Osaka, Japan), and OE19 which was purchased from the European Collection of Cell Cultures (ECACC, Salisbury, UK).
as §1, §2

CP70 = assay: MTT proliferation assay, CP70; type: cell-based; settings: 120 h, Ovarian, CP70, 120 h of exposure
Procedure: as §1, §2

NCI-H460 = assay: MTT proliferation assay, NCI-H460; type: cell-based, human; settings: Homo sapiens; NSCLC, NCI-H460, 120 h of exposure
Procedure: as §3, §1, §2

A549 = assay: MTT proliferation assay, A549; type: cell-based; settings: Homo sapiens; NSCLC, A549, 120 h of exposure
Procedure: as §1, §2

CALU3 = assay: MTT proliferation assay, CALU3; type: cell-based; settings: Homo sapiens, Calu-3; NSCLC, CALU3, 120 h of exposure
Procedure: as §1, §2

HepG2 = assay: MTT proliferation assay, HepG2; type: cell-based, human; settings: Homo sapiens; Liver, HepG2, 120 h of exposure
Procedure: (§4) The human hepatocellular carcinoma lines HepG2 (HB-8065), SK-HEP-1 (HTB-52) and the normal human lung fibroblast line IMR-90 (CCL-186) were cultured in Minimum Essential Eagles Medium containing 2 mM L-glutamine, 2.2 g/L sodium bicarbonate, supplemented with 1 mM sodium pyruvate and 0.1 mM non-essential amino acids. The human hepatocellular carcinoma line JHH-1 (JCRB1062) was cultured in Williams E Medium (Invitrogen) containing 2.2 g/L sodium bicarbonate, supplemented with 2 mM L-glutamine. The hepatocellular carcinoma line HuH-7 (JCRB0403) was cultured in DMEM, supplemented with 2 mM L-glutamine.
as §1, §2

SK-Hep-1 = assay: MTT proliferation assay, SK-Hep-1; type: cell-based, human; settings: Homo sapiens, SK-HEP1; Liver, SK-Hep-1, 120 h of exposure
Procedure: as §4, §1, §2

HuH-7 = assay: MTT proliferation assay, HuH-7; type: cell-based, human; settings: Homo sapiens; Liver, HuH-7, 120 h of exposure
Procedure: as §4, §1, §2

A2058 = assay: MTT proliferation assay, A2058; type: cell-based; settings: Homo sapiens, A2058, 120 h, Melanoma, A2058, 120 h of exposure
Procedure: as §1, §2

4405 = assay: MTT proliferation assay, 4405; type: cell-based; settings: Melanoma, 4405, 120 h of exposure
Procedure: as §1, §2

MM200 = assay: MTT proliferation assay, MM200; type: cell-based; settings: Melanoma, MM200, 120 h of exposure
Procedure: as §1, §2

MDA-MB-468 = assay: MTT proliferation assay, MDA-MB-468; type: cell-based, human; settings: Homo sapiens, MDA-MB-468, 120 h, Breast, MDA-MB-468, 120 h of exposure
Procedure: The human gastric cancer cell line AGS (CRL-1739) was cultured in Hams F-12K (Kaighans modification) medium containing 2 mM L-glutamine, 2.5 g/L sodium bicarbonate and 2 mM sodium pyruvate. The human breast adenocarcinoma line MDA-MB-468 (HTB-132) was cultured in DMEM:F12 (1:1) medium containing 2.5 mM L-glutamine, 2.4 g/L sodium bicarbonate, supplemented with an additional 2 mM L-glutamine.
as §1, §2

SKBR-3 = assay: MTT proliferation assay, SKBR-3; type: cell-based, human; settings: Homo sapiens, SK-BR-3, 120 h, Breast, SKBR-3, 120 h of exposure
Procedure: The human colorectal adenocarcinoma line HCT-116 (CCL-247) and the human breast adenocarcinoma line SK-BR-3 (HTB-30) were cultured in McCoy's 5a Medium (Invitrogen) containing 1.5 mM L-glutamine and 2.2 g/L sodium bicarbonate. The human colorectal adenocarcinoma line SW620 (CCL-227) was cultured in Leibovitz's L-15 Medium (Invitrogen) containing 2.05 mM L-glutamine.
as §1, §2

| SMILES | pIC50 (PC3) | pIC50 (DU145) | pIC50 (LNCaP) | pIC50 (COLO205) | pIC50 (A2780) | pIC50 (R-182) | pIC50 (CP70) | pIC50 (NCI-H460) | pIC50 (A549) | pIC50 (CALU3) | pIC50 (HepG2) | pIC50 (SK-Hep-1) | pIC50 (HuH-7) | pIC50 (A2058) | pIC50 4405 | pIC50 (MM200) | pIC50 (MDA-MB-468) | pIC50 (SKBR-3) |
| --- | --- | --- | --- | --- | --- | --- | --- | --- | --- | --- | --- | --- | --- | --- | --- | --- | --- | --- |
| COc1ccc(C2c3ccc(O)c(C)c3OCC2c2ccc(O)cc2)cc1C (centres unmarked) [Compound 7, 3-(4-hydroxyphenyl)-4-(4-methoxy-3-methylphenyl)-8-methylchroman-7-ol] | 5.00 to 5.80 | 5.00 to 5.80 | 5.00 to 5.80 | ≤ 5.00 | 5.00 to 5.80 | 5.00 to 5.80 | 5.00 to 5.80 | 5.00 to 5.80 | 5.00 to 5.80 | 5.00 to 5.80 | 5.00 to 5.80 | 5.00 to 5.80 | 5.00 to 5.80 | 5.00 to 5.80 | 5.00 to 5.80 | ≤ 5.00 | 5.00 to 5.80 | 5.82 to 6.29 |
| Cc1c(O)ccc2c1OC[C@@H](c1ccc(O)cc1)[C@H]2c1ccc(O)cc1 [d-5, d-cis-3-(4-hydroxyphenyl)-4-(4-hydroxyphenyl)-8-methylchroman-7-ol] | ≥ 6.82 | ≥ 6.82 | ≥ 6.82 | 5.82 to 6.29 | ≥ 6.82 | ≥ 6.82 | ≥ 6.82 | ≥ 6.82 | 6.30 to 6.82 | ≥ 6.82 | ≥ 6.82 | ≥ 6.82 | ≥ 6.82 | ≥ 6.82 | ≥ 6.82 | 6.30 to 6.82 | ≥ 6.82 | ≥ 6.82 |
| COc1ccc([C@H]2c3ccc(O)c(C)c3OC[C@H]2c2ccc(O)cc2)cc1C [d-7, d-cis-3-(4-hydroxyphenyl)-4-(4-methoxy-3-methylphenyl)-8-methylchroman-7-ol] | 5.82 to 6.29 | 5.82 to 6.29 | 5.00 to 5.80 | ≤ 5.00 | 5.82 to 6.29 | 5.82 to 6.29 | 5.82 to 6.29 | 5.00 to 5.80 | 5.00 to 5.80 | 5.00 to 5.80 | 5.82 to 6.29 | 5.00 to 5.80 | 5.82 to 6.29 | 5.82 to 6.29 | 5.00 to 5.80 | – | 6.30 to 6.82 | – |
| COc1ccc([C@@H]2c3ccc(O)c(C)c3OC[C@@H]2c2ccc(O)cc2)cc1C [l-7, l-cis-3-(4-hydroxyphenyl)-4-(4-methoxy-3-methylphenyl)-8-methylchroman-7-ol] | ≤ 5.00 | ≤ 5.00 | ≤ 5.00 | ≤ 5.00 | ≤ 5.00 | ≤ 5.00 | ≤ 5.00 | ≤ 5.00 | ≤ 5.00 | ≤ 5.00 | ≤ 5.00 | ≤ 5.00 | ≤ 5.00 | ≤ 5.00 | ≤ 5.00 | – | ≤ 5.00 | – |
